Test systems include Vibrio cholerae; Escherichia coli MG1655; Methylobacterium sp.; Xanthomonas citri; Escherichia coli SPE 001; Alternaria alternata; Botrytis cinerea; Cladosporium herbarum; Escherichia coli BL2; Enterococcus faecium; Enterococcus gallinarum; Staphylococcus aureus.
Common to all, as to experiment: ≥ marks a high value that may be exact or a test limit, other limits are often not marked, values filed in µg/mL are converted to µM
Test [1] concerns Staphylococcus aureus MTCC 9542.
In test [2] the test system is Staphylococcus aureus ATCC 43300.
For test [3], the system named is Bacillus subtilis MTCC 14416.
Test [4] relates to Enterococcus faecalis ATCC 29212.
Test [5] concerns Sinorhizobium meliloti USDA 1002.
In test [6] the test system is Staphylococcus aureus SPM 101.
For test [7], the system named is Streptococcus pneumoniae DSM 11865.
The subject of test [8] is Klebsiella pneumoniae DSM 681.
Test [9] has as its system Staphylococcus aureus ATCC 25923.
The subject of test [10] is Escherichia coli DSM 1103.
For test [11], the system named is Pseudomonas aeruginosa DSM 1128.
Test [12] relates to Staphylococcus aureus 90857.
In test [13] the test system is Pseudomonas syringae pv. syringae DSM 10604.
Test [14] concerns Clavibacter michiganensis subsp. michiganensis DSM 46294.
In test [15] the test system is Pseudomonas corrugata DSM 7228.
The test system of test [16] is Pseudomonas syringae pv. tomato DC3000.
In test [17] the test system is Pectobacterium carotovorum subsp. carotovorum DSM 30168.
The subject of test [18] is Xanthomonas vesicatoria DSM 50861.
For test [19], the system named is Acinetobacter baumannii ATCC 15308.
In test [20] the test system is Micrococcus luteus ATCC 7468.
The subject of test [21] is Enterococcus faecium ATCC 19434.
The subject of test [22] is Staphylococcus aureus ATCC 502A.
For test [23], the system named is Pseudomonas sp. ATCC 15915.
The test system of test [24] is Bacillus subtilis KCTC 3038.
The subject of test [25] is Enterococcus casseliflavus.
Test [26] has as its system Salmonella typhimurium KCTC 2370.
In test [27] the test system is Escherichia coli ATCC 27325.
For test [28], the system named is Saccharomyces cerevisiae ATCC 44774.

Each structure is given as a SMILES string. Values after ≈ are worked out from the molar mass of the structure shown. Values joined by “and” are separate entries in the source; they are usually repeats but may differ in a detail not shown here. Equal values may be shown once.

In the case of `CC[C@H](C)[C@H](NC(=O)[C@H](C)NC(=O)[C@H](CS)NC(=O)[C@H](Cc1ccccc1)NC(=O)[C@@H](NC(=O)[C@H](CCCCN)NC(=O)[C@@H]1CCCN1C(=O)[C@H](CC(C)C)NC(=O)[C@H](Cc1ccccc1)NC(=O)[C@H](CCCCN)NC(=O)[C@H](C)NC(=O)[C@H](C)NC(=O)[C@H](CCSC)NC(=O)CNC(=O)[C@H](C)NC(=O)[C@@H](NC(=O)[C@H](Cc1ccccc1)NC(=O)[C@@H]1CCCN1C(=O)[C@H](CC(C)C)NC(=O)[C@@H](N)Cc1ccccc1)[C@@H](C)CC)[C@@H](C)CC)C(=O)N[C@@H](CO)C(=O)N[C@@H](CCCCN)C(=O)N[C@@H](CCCCN)C(N)=O` [FLPFIAGMAAKFLPKIFCAISKK], the MIC came out at 9.83 µM (≈ 25 µg/mL) in [1]; 2.46 µM (≈ 6.25 µg/mL) in test [2]; 9.83 µM (≈ 25 µg/mL) in test [3]; 9.83 µM (≈ 25 µg/mL) against Vibrio cholerae; 7.87 µM (≈ 20 µg/mL) against Escherichia coli MG1655; 9.83 µM (≈ 25 µg/mL) in test [4].
In the case of `CC[C@H](C)[C@H](NC(=O)[C@H](C)NC(=O)CNC(=O)[C@H](Cc1ccccc1)NC(=O)[C@@H](NC(=O)[C@@H](N)CCCCN)[C@@H](C)CC)C(=O)N[C@@H](Cc1c[nH]c2ccccc12)C(=O)N1CCC[C@H]1C(=O)N[C@@H](CC(C)C)C(=O)N[C@@H](C)C(=O)N[C@@H](CC(C)C)C(=O)NCC(=O)N[C@@H](C)C(=O)N[C@@H](CC(C)C)C(=O)N[C@@H](CCCCN)C(=O)N[C@@H](CC(N)=O)C(=O)N[C@@H](CC(C)C)C(=O)N[C@H](C(=O)N[C@@H](CCCCN)C(=O)O)[C@@H](C)CC` [KIFGAIWPLALGALKNLIK], the MIC in the test with Methylobacterium sp. came to 4 µM (≈ 8.27 µg/mL); against Xanthomonas citri, 2 µM (≈ 4.13 µg/mL); in test [5], 4 µM (≈ 8.27 µg/mL).
Consider `CC(C)C[C@H](NC(=O)[C@H](CCCCN)NC(=O)[C@H](CC(C)C)NC(=O)[C@H](CC(C)C)NC(=O)[C@H](CC(C)C)NC(=O)[C@H](CC(C)C)NC(=O)[C@H](CCCCN)NC(=O)[C@H](CC(C)C)NC(=O)[C@@H](N)CCCCN)C(=O)N[C@@H](CCCCN)C(N)=O` [KLKLLLLKLK], for which the MIC in the test on Escherichia coli SPE 001 was 26.5 µM (≈ 32 µg/mL); in [6] it was 1.65 µM (≈ 2 µg/mL).
For the compound `CC(C)C[C@H](NC(=O)[C@@H](NC(=O)[C@H](C)NC(=O)[C@H](Cc1c[nH]c2ccccc12)NC(=O)[C@H](CCCN=C(N)N)NC(=O)CNC(=O)CNC(=O)[C@H](CCCN=C(N)N)NC(=O)[C@@H](NC(=O)[C@H](CCCN=C(N)N)NC(=O)[C@H](Cc1c[nH]c2ccccc12)NC(=O)[C@H](Cc1ccc(O)cc1)NC(=O)[C@H](Cc1ccc(O)cc1)NC(=O)[C@H](CCCCN)NC(=O)[C@H](CCC(N)=O)NC(=O)[C@@H](N)CC(C)C)C(C)C)C(C)C)C(=O)N[C@@H](CO)C(=O)O` [LQKYYWRVRGGRWAVLS], the MIC in test [7] is no less than 140 µM; in test [8] it was no less than 140 µM; in [9] it was 70.1 µM (≈ 150 µg/mL); in test [10], no less than 140 µM; in test [11], no less than 140 µM.
In the case of `CC[C@H](C)[C@H](NC(=O)[C@H](CCCCN)NC(=O)[C@H](CCCCN)NC(=O)[C@H](CC(C)C)NC(=O)[C@H](Cc1ccccc1)NC(=O)[C@H](CCCN=C(N)N)NC(=O)[C@@H](N)CC(C)C)C(=O)N[C@@H](CC(C)C)C(=O)N[C@@H](CCCCN)C(=O)N[C@@H](Cc1cnc[nH]1)C(=O)N[C@@H](CC(C)C)C(=O)N[C@@H](Cc1ccccc1)C(N)=O` [LRFLKKILKHLF], the MIC in test [12] is 1.5 µM (≈ 2.33 µg/mL); against Alternaria alternata, no less than 64.3 µM; in test [13], 6.43 µM (≈ 9.99 µg/mL); with Botrytis cinerea, no less than 64.3 µM; with Cladosporium herbarum, 6.43 µM (≈ 9.99 µg/mL); in [14], 6.43 µM (≈ 9.99 µg/mL). Moreover, the MIC in [15] was found to be 12.9 µM (≈ 20 µg/mL); in [16] it was 6.43 µM (≈ 9.99 µg/mL); in test [17] it was 12.9 µM (≈ 20 µg/mL); in test [18], 3.21 µM (≈ 5 µg/mL).
Take `CC[C@H](C)[C@H](NC(=O)[C@H](C)NC(=O)[C@H](Cc1ccccc1)NC(=O)[C@H](Cc1c[nH]c2ccccc12)NC(=O)[C@H](CCC(N)=O)NC(=O)[C@H](C)NC(=O)[C@H](CCCN=C(N)N)NC(=O)[C@@H](NC(=O)[C@H](Cc1ccccc1)NC(=O)[C@H](CCC(N)=O)NC(=O)[C@@H]1CCCN1C(=O)[C@@H]1CCCN1C(=O)[C@@H](N)CCCN=C(N)N)[C@@H](C)O)C(=O)N[C@@H](CCC(N)=O)C(=O)N[C@@H](Cc1cnc[nH]1)C(=O)N[C@H](C(=O)N[C@@H](CO)C(=O)N[C@@H](CC(C)C)C(=O)N[C@@H](CC(N)=O)C(=O)O)[C@@H](C)CC` [RPPQFTRAQWFAIQHISLN]: the MIC (in the test with Escherichia coli BL2; in test [19]; in test [20]; in test [21]; in test [22]; in [23]) was 10 µM (≈ 23.1 µg/mL) in each case.
As to `CC(C)[C@H](NC(=O)[C@H](CCCCN)NC(=O)[C@H](CCC(N)=O)NC(=O)[C@H](CCCCN)NC(=O)[C@@H](NC(=O)[C@@H](NC(=O)[C@H](CCC(N)=O)NC(=O)[C@@H](NC(=O)[C@@H](NC(=O)[C@@H]1CCCN1C(=O)[C@H](CCCN=C(N)N)NC(=O)[C@@H](NC(=O)[C@@H](NC(=O)[C@@H](N)CCCN=C(N)N)C(C)C)C(C)C)C(C)C)C(C)C)C(C)C)C(C)C)C(=O)N[C@@H](CCCN=C(N)N)C(=O)O` [RVVRPVVQVVKQKVR], the MIC in the test with Enterococcus faecium was 2.23 µM (≈ 4 µg/mL); in test [24], 8.94 µM (≈ 16 µg/mL); in test [25], 1.12 µM (≈ 2 µg/mL); against Enterococcus gallinarum, no less than 35.8 µM; against Staphylococcus aureus it was greater than 35.8 µM; in [26] it was no less than 35.8 µM. The MIC in test [27] is 17.9 µM and ≥ 35.8 µM; in test [4], 4.47 µM (≈ 8 µg/mL); in test [28] it was 1.12 µM (≈ 2 µg/mL).

(Values after DBAASP.)
